≈ marks a conversion by molar mass, not a printed value.
Assays:
E. coli ELZ4251 = assay: Antibacterial activity, MIC, multi-drug resistant clinical isolate (Table 3); format: cell-based; settings: Escherichia coli
Text: (§1) The antibacterial activity from a microbroth dilution method may be presented as the minimum inhibitory concentration (MIC in μg/mL). The MIC value is the lowest concentration of drug which prevents macroscopically visible growth under test conditions.
(§2) Antibacterial activity of test compounds against E. coli ELZ4000 and E. coli ELZ4251 multi-drug resistant clinical isolates is shown in Table 3.

E. coli ELZ4000 = assay: as above; format: cell-based; settings: Escherichia coli, ELZ4000, read-out: MIC ELZ4000
Text: as §1, §2

E. coli 25922 = assay: Antibacterial activity, microbroth dilution MIC (Table 1); format: cell-based, Escherichia coli; settings: Escherichia coli; microbroth dilution; control Gram-negative E. coli 25922 strain; read-out: MIC, 25922
Outline: (§3)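 Microbroth dilution was used. MIC, in μg/mL, is the lowest drug concentration preventing macroscopically visible growth under the test conditions.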

[1] = tested on: Pseudomonas aeruginosa (P. aeruginosa) 27853; assay: Antibacterial activity, MIC (Table 5); format: cell-based; settings: P. aeruginosa 27853, read-out: MIC, 27853
Outline: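 Values are MICs in μg/mL, read as the lowest concentration at which no growth is visible by eye. They were determined by a microbroth dilution method.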

[2] = tested on: Escherichia coli (E. coli) BAS849; assay: Antibacterial activity, microbroth dilution MIC (Table 1); format: cell-based; settings: microbroth dilution, super sensitive Gram-negative E. coli BAS849, read-out: MIC, BAS849
Outline: as §3

[3] = tested on: Staphylococcus aureus (S. aureus) 29213; assay: as above; format: cell-based; settings: microbroth dilution, Gram-positive S. aureus 29213, read-out: MIC, 29213
Outline: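 Read-out: visual absence of growth. The lowest concentration meeting this gives the MIC, expressed in μg/mL, with microbroth dilution as the method.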

E. coli LZ3111 = assay: Antibacterial activity, MIC, quinolone resistant strain (Table 2); format: cell-based; settings: Escherichia coli, LZ3111, read-out: MIC LZ3111
Outline: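 MIC values (μg/mL) came from a microbroth dilution assay, scored as the lowest drug concentration at which no growth was visible by eye.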

[4] = tested on: Acinetobacter baumannii (A. baumannii) BAA747; assay: Antibacterial activity, MIC (Table 4); format: cell-based; settings: A. baumannii BAA747, read-out: MIC, BAA747
Outline: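 The resistant panel comprises multi-drug resistant clinical isolates. All strains were tested by microbroth dilution, with the MIC in μg/mL taken as the lowest concentration that prevented macroscopically visible growth.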

Compound `CCc1c(-c2ccc3c(c2)cc(CN2C[C@H]4C[C@@H](N(C)Cc5ccccc5)C[C@H]4C2)n3C)[nH]c(=O)c(C(=O)O)c1O` [Cpd 288, 6-(2-(((3aR,5r,6aS)-5-(benzyl(methyl)amino)hexahydrocyclopenta[c]pyrrol-2(1H)-yl)methyl)-1-methyl-1H-indol-5-yl)-5-ethyl-4-hydroxy-2-oxo-1,2-dihydropyridine-3-carboxylic acid] has an MIC (E. coli ELZ4251) of 12.5 to 150 µg/mL (≈ 22.5 to 270 µM), an MIC (E. coli ELZ4000) of 12.5 to 150 µg/mL (≈ 22.5 to 270 µM) and an MIC (E. coli 25922) of 1 to 3.5 µg/mL (≈ 1.8 to 6.31 µM). It also gave an MIC [1] of 12.5 to 150 µg/mL (≈ 22.5 to 270 µM), an MIC [2] of less than 1 µg/mL and an MIC [3] of 3.5 to 12.5 µg/mL (≈ 6.31 to 22.5 µM). It also gave an MIC (E. coli LZ3111) of 12.5 to 150 µg/mL (≈ 22.5 to 270 µM).

`CCc1c(-c2ccc3c(c2)cc(CN2C[C@H]4C[C@@H](NC)C[C@H]4C2)n3C)[nH]c(=O)c(C(=O)O)c1O` [Cpd 289, 5-ethyl-4-hydroxy-6-(1-methyl-2-(((3aR,5r,6aS)-5-(methylamino)hexahydrocyclopenta[c]pyrrol-2(1H)-yl)methyl)-1H-indol-5-yl)-2-oxo-1,2-dihydropyridine-3-carboxylic acid] was tested, and the MIC (E. coli ELZ4251) was 12.5 to 150 µg/mL (≈ 26.9 to 323 µM), the MIC (E. coli ELZ4000) was 12.5 to 150 µg/mL (≈ 26.9 to 323 µM) and the MIC (E. coli 25922) was 12.5 to 150 µg/mL (≈ 26.9 to 323 µM). The MIC [1] was 12.5 to 150 µg/mL (≈ 26.9 to 323 µM), the MIC [4] was 12.5 to 150 µg/mL (≈ 26.9 to 323 µM) and the MIC [2] was 1 to 3.5 µg/mL (≈ 2.15 to 7.53 µM). It also gave an MIC [3] of 12.5 to 150 µg/mL (≈ 26.9 to 323 µM) and an MIC (E. coli LZ3111) of 3.5 to 12.5 µg/mL (≈ 7.53 to 26.9 µM).

`CCc1c(-c2ccc3c(c2)cc(CNCCN(C)C)n3C)[nH]c(=O)c(C(=O)O)c1O` [Cpd 302, 6-(2-((2-(dimethylamino)ethylamino)methyl)-1-methyl-1H-indol-5-yl)-5-ethyl-4-hydroxy-2-oxo-1,2-dihydropyridine-3-carboxylic acid] was tested, and the MIC (E. coli ELZ4251) was 3.5 to 12.5 µg/mL (≈ 8.49 to 30.3 µM), the MIC (E. coli ELZ4000) was 12.5 to 150 µg/mL (≈ 30.3 to 364 µM) and the MIC (E. coli 25922) was 1 to 3.5 µg/mL (≈ 2.42 to 8.49 µM). The MIC [1] was 12.5 to 150 µg/mL (≈ 30.3 to 364 µM), the MIC [4] was 3.5 to 12.5 µg/mL (≈ 8.49 to 30.3 µM) and the MIC [2] was less than 1 µg/mL. For the same compound, the MIC [3] was 12.5 to 150 µg/mL (≈ 30.3 to 364 µM) and the MIC (E. coli LZ3111) was 3.5 to 12.5 µg/mL (≈ 8.49 to 30.3 µM).

With `Cn1c(CN2CCCC2)cc2cc(-c3[nH]c(=O)c(C(=O)O)c(O)c3C3CC3)ccc21` [Cpd 323, 5-cyclopropyl-4-hydroxy-6-(1-methyl-2-(pyrrolidin-1-ylmethyl)-1H-indol-5-yl)-2-oxo-1,2-dihydropyridine-3-carboxylic acid] the MIC (E. coli ELZ4251) was 3.5 to 12.5 µg/mL (≈ 8.59 to 30.7 µM), the MIC (E. coli ELZ4000) was 12.5 to 150 µg/mL (≈ 30.7 to 368 µM) and the MIC (E. coli 25922) was 12.5 to 150 µg/mL (≈ 30.7 to 368 µM). It also gave an MIC [1] of 12.5 to 150 µg/mL (≈ 30.7 to 368 µM), an MIC [4] of 12.5 to 150 µg/mL (≈ 30.7 to 368 µM) and an MIC [2] of 1 to 3.5 µg/mL (≈ 2.45 to 8.59 µM). It also gave an MIC [3] of 12.5 to 150 µg/mL (≈ 30.7 to 368 µM) and an MIC (E. coli LZ3111) of 3.5 to 12.5 µg/mL (≈ 8.59 to 30.7 µM).

With `Cn1c(CN2CCC2)cc2cc(-c3[nH]c(=O)c(C(=O)O)c(O)c3C3CC3)ccc21` [Cpd 324, 6-(2-(azetidin-1-ylmethyl)-1-methyl-1H-indol-5-yl)-5-cyclopropyl-4-hydroxy-2-oxo-1,2-dihydropyridine-3-carboxylic acid] the MIC (E. coli ELZ4251) was 3.5 to 12.5 µg/mL (≈ 8.9 to 31.8 µM), the MIC (E. coli ELZ4000) was 3.5 to 12.5 µg/mL (≈ 8.9 to 31.8 µM) and the MIC (E. coli 25922) was 12.5 to 150 µg/mL (≈ 31.8 to 381 µM). The MIC [1] was 12.5 to 150 µg/mL (≈ 31.8 to 381 µM), the MIC [4] was 12.5 to 150 µg/mL (≈ 31.8 to 381 µM) and the MIC [2] was 1 to 3.5 µg/mL (≈ 2.54 to 8.9 µM). The MIC [3] was 12.5 to 150 µg/mL (≈ 31.8 to 381 µM) and the MIC (E. coli LZ3111) was 3.5 to 12.5 µg/mL (≈ 8.9 to 31.8 µM).

Work on `Cn1c(CNCC2CC2)cc2cc(-c3[nH]c(=O)c(C(=O)O)c(O)c3C3CC3)ccc21` [Cpd 325, 5-cyclopropyl-6-(2-((cyclopropylmethylamino)methyl)-1-methyl-1H-indol-5-yl)-4-hydroxy-2-oxo-1,2-dihydropyridine-3-carboxylic acid] yielded an MIC (E. coli ELZ4251) of 1 to 3.5 µg/mL (≈ 2.45 to 8.59 µM), an MIC (E. coli ELZ4000) of 3.5 to 12.5 µg/mL (≈ 8.59 to 30.7 µM) and an MIC (E. coli 25922) of 12.5 to 150 µg/mL (≈ 30.7 to 368 µM). It also gave an MIC [1] of 12.5 to 150 µg/mL (≈ 30.7 to 368 µM), an MIC [4] of 12.5 to 150 µg/mL (≈ 30.7 to 368 µM) and an MIC [2] of 3.5 to 12.5 µg/mL (≈ 8.59 to 30.7 µM). The MIC [3] was 12.5 to 150 µg/mL (≈ 30.7 to 368 µM) and the MIC (E. coli LZ3111) was 3.5 to 12.5 µg/mL (≈ 8.59 to 30.7 µM).

In the case of `Cn1c(CN2CCC2)cc2cc(-c3cc(O)c(C(=O)O)c(=O)[nH]3)ccc21` [Cpd 328, 6-(2-(azetidin-1-ylmethyl)-1-methyl-1H-indol-5-yl)-4-hydroxy-2-oxo-1,2-dihydropyridine-3-carboxylic acid], the MIC (E. coli ELZ4251) is reported as 12.5 to 150 µg/mL (≈ 35.4 to 424 µM), the MIC (E. coli ELZ4000) is reported as 12.5 to 150 µg/mL (≈ 35.4 to 424 µM) and the MIC (E. coli 25922) is reported as 12.5 to 150 µg/mL (≈ 35.4 to 424 µM). The MIC [1] was 12.5 to 150 µg/mL (≈ 35.4 to 424 µM), the MIC [4] was 12.5 to 150 µg/mL (≈ 35.4 to 424 µM) and the MIC [2] was 3.5 to 12.5 µg/mL (≈ 9.9 to 35.4 µM). The MIC [3] was 12.5 to 150 µg/mL (≈ 35.4 to 424 µM) and the MIC (E. coli LZ3111) was 3.5 to 12.5 µg/mL (≈ 9.9 to 35.4 µM).

With `CCc1c(-c2ccc3c(c2)cc(CN2CCCCC2)n3C)[nH]c(=O)c(C(=O)O)c1N` [Cpd 331, 4-amino-5-ethyl-6-(1-methyl-2-(piperidin-1-ylmethyl)-1H-indol-5-yl)-2-oxo-1,2-dihydropyridine-3-carboxylic acid] the MIC (E. coli ELZ4251) was 12.5 to 150 µg/mL (≈ 30.6 to 367 µM), the MIC (E. coli ELZ4000) was 12.5 to 150 µg/mL (≈ 30.6 to 367 µM) and the MIC (E. coli 25922) was 3.5 to 12.5 µg/mL (≈ 8.57 to 30.6 µM). The MIC [1] was 12.5 to 150 µg/mL (≈ 30.6 to 367 µM), the MIC [2] was less than 1 µg/mL and the MIC [3] was 12.5 to 150 µg/mL (≈ 30.6 to 367 µM). For the same compound, the MIC (E. coli LZ3111) was 12.5 to 150 µg/mL (≈ 30.6 to 367 µM).

Source: patent US9409905B2, “Antibacterial compounds and methods for use” (PTC THERAPEUTICS, INC., priority 2011, dated 2016)
